Assay results as given in publication PMC5458211, “Mitochondrial VDAC1-based peptides: Attacking oncogenic properties in glioblastoma” (Oncotarget, 2017).
Non-standard residues stand in square brackets, D forms with d. Residues, ends and D or L forms follow the SMILES beside them.

Legend:
[1] = tested on: U-87MG sub-cutaneous xenograft tumors; assay: Sub-cutaneous U-87MG xenograft, tumor growth; type: in vivo, human U-87MG in nude mice; settings: s.c. U-87MG xenograft, 20 μM intra-tumoral every two days, end point, n=5
Description: Figure 3 VDAC1-based peptides inhibit tumor growth, cell proliferation, and invasion in a glioblastoma xenograft mice model A. Graphical representation of the xenograft experiment protocol used. U-87MG cells (3×10^6/mouse) were inoculated into male nude mice as described in Materials and Methods available online in Supplemental information. B, C. […] The calculated average tumor volumes are presented as means ± SE (n=5) (* p≤0.05, ** p≤0.01). C. The volume of peptide-treated tumors is presented as % of control for each indicated time. Results = mean ± SE (n=5) (* p≤0.05, ** […]). […] E. Quantitative analysis of Ki-67 positive cells. Results = mean ± SE (n=5) (*** p<0.001). […]
U-87MG glioblastoma cells (3 x10^6) were inoculated s.c. into the hind leg flanks of athymic eight-week old male nude mice (Envigo). Thirteen days post-inoculation, tumor volume was measured (100-130 mm^3) and mice were randomized into three groups (5 animals/group), treated with PBS containing 0.26% DMSO or peptide in PBS, 0.26% DMSO/20 μM every second day. […]
(Calbiochem, UK). […] Thirteen days post-inoculation, using various primary antibodies (sources and dilutions tumor volume was measured and calculated (100-130 as detailed in supplementary Table 2), followed by mm3) and mice were randomized into three groups (5 the appropriate HRP-conjugated secondary antibodies mice/group). […]

[2] = tested on: GSC markers; assay: Expression of GSC markers in treated tumors (IHC, immunoblot); type: in vivo, human U-87MG in nude mice; settings: treated tumors vs PBS/DMSO
Description: Sections were also hematoxylin-stained and visualized by microscopy. B. Tissue lysates obtained from controls and several TF-D-LP4-TTs were immunoblotted for Nestin, Sox2, NGFR, CD133, and Klf4. C. Quantitative analysis of immunoblots is shown (n=2-4). D. Immunoblot analysis of, Klf4, Sox2, Nestin and Musashi expression in U-87MG and G7 cell lines, using specific antibodies. E. Quantitative analysis of immunoblots. […] G. G7 (·) and U-87MG cells (○) (2×10^5) were incubated for 3 h with the DMSO (0.15%) or with the indicated concentration of Retro-Tf-D-LP4 peptide in serum-free growth medium at 37°C and then subjected to FITC-Annexin V/PI staining and flow cytometry analysis. H. Representative FACS analysis of DMSO- (left) and 5 μM of Retro-Tf-D-LP4- (right) treated G7 or U-87MG cells.
Formalin-fixed, paraffin-embedded sections of control and peptide-TTs were hematoxylin-eosin stained, probed with appropriate antibodies via IHC staining or immunoblotting of cells and tissue extracts.
PLGA encapsulation of the VDAC1-based minutes using an UltraMicroPump III (World Precision peptide Retro-Tf-D-LP4 Instruments, Sarasota, FL). After infusion, the needle was left in place for 1 minute before slow withdrawal. The burr
Retro-Tf-D-LP4-loaded PLGA complexes were hole was sealed using sterile bone wax, and the wound prepared by the solvent displacement method with some was closed with 5.0 nylon surgical suture. All surgical modifications, as previously reported [2 3]. Twenty procedures were performed under sterile conditions.
100% DMSO and then diluted 20-fold with sterile DDW into three groups (6 animals/group) and treated every to reach a concentration of 25 mg/ml in a final DMSO third day with DMSO (1.44%), Retro-Tf-D-LP4 (10 concentration of 5%. PLGA (50 mg) was dissolved in mg/kg) or Retro-Tf-D-LP4 (10 mg/kg) encapsulated by acetone (1 ml). Then, 105 µl of peptide were added to the PLGA. Mice were subjected to MRI (at days 20 and 29), PLGA-acetone solution. The resulting peptide-PLGA- sacrificed, and brains were excised and processed for acetone mixture was added drop-wise (0.5 ml/min) into IHC. Tumor volume was analyzed using VivoQuant 2.10 10 ml of aqueous solution containing 1% PVA (w/v). The software. These experimental protocols were approved by mixtures were stirred continuously at room temperature the Institutional Animal Care and Use Committee of Ben-until complete evaporation of the organic solvent. The Gurion University. nanoparticles were centrifuged at 15,000g (4 °C for 20 min) and the pellet was re-suspended in sterile DDW and Gel electrophoresis and immunoblotting washed two times. The resulting pellet was mixed with HBSS solution. Cells or tumor tissue were lysed using lysis buffer (50 mM Tris-HCl, pH 7.5, 150 mM NaCl, 1
Xenograft and intracranial-orthotopic mouse mM EDTA, 1.5 mM MgCl2, 10% glycerol, 1% Triton models X-100, supplemented with a protease inhibitor cocktail
(Calbiochem, UK). Cell lysates were then centrifuged at U-87MG glioblastoma cells (3 x106) were inoculated 600xg (10 min at 4°C) and samples (10-40 μg of protein) s.c. into the hind leg ﬂanks of athymic eight-week old were subjected to SDS-PAGE and immunoblotting male nude mice (Envigo). Thirteen days post-inoculation, using various primary antibodies (sources and dilutions tumor volume was measured and calculated (100-130 as detailed in supplementary Table 2), followed by mm3) and mice were randomized into three groups (5 the appropriate HRP-conjugated secondary antibodies mice/group). Each treatment substance was injected into (i.e., anti-mouse, anti-rabbit or anti-goat). Blots the established s,c. tumors using PBS containing 0.26% were developed using enhanced chemiluminescence DMSO or peptide in PBS, 0.26% DMSO/20 μM). The (Biological Industries). Band intensities were analyzed xenografts were injected 20 µl per tumor (2 points) every by densitometry using Multi Gauge software (Fujifilm) […]
two days. […]

CC[C@@H](C)[C@@H](NC(=O)[C@@H](CCCCN)NC(=O)[C@H](NC(=O)[C@@H](CCC(N)=O)NC(=O)[C@@H](CCCNC(=N)N)NC(=O)[C@@H](CC(C)C)NC(=O)CNC(=O)[C@@H](Cc1ccccc1)NC(=O)CNC(=O)[C@@H](Cc1ccc(O)cc1)NC(=O)CNC(=O)[C@@H](CCCCN)NC(=O)[C@H](NC(=O)[C@@H](Cc1ccccc1)NC(=O)[C@H](NC(=O)[C@@H](CC(=O)O)NC(=O)[C@H](N)CCCNC(=N)N)C(C)C)[C@H](C)O)[C@H](C)CC)C(=O)N[C@H](Cc1c[nH]c2ccccc12)C(=O)N[C@H](Cc1ccccc1)C(=O)N[C@H](CCC(N)=O)C(=O)N[C@H](CC(N)=O)C(=O)N[C@H](CCCNC(=N)N)C(=O)N[C@H](CCCNC(=N)N)C(=O)N[C@H](CCSC)C(=O)N[C@H](CCCCN)C(=O)N[C@H](Cc1c[nH]c2ccccc12)C(=O)N[C@H](CCCCN)C(=O)N[C@H](CCCCN)C(=O)O [D-ΔN-Ter-Antp] (H-[dR][dD][dV][dF][dT][dK]G[dY]G[dF]G[dL][dR][dQ][dI][dK][dI][dW][dF][dQ][dN][dR][dR][dM][dK][dW][dK][dK]-OH; N-terminus and C-terminus assumed)
about 75%: lower average tumor volume relative to PBS/DMSO [1]

CC[C@H](C)[C@H](NC(=O)[C@H](C)NC(=O)[C@@H](N)Cc1c[nH]cn1)C(=O)N[C@@H](Cc1ccc(O)cc1)C(=O)N1CCC[C@H]1C(=O)N[C@@H](CCCNC(=N)N)C(=O)N[C@@H](Cc1c[nH]cn1)C(=O)N[C@@H](CO)C(=O)N[C@@H](Cc1c[nH]c2ccccc12)C(=O)N[C@H](C(=O)N[C@@H](Cc1c[nH]c2ccccc12)C(=O)N[C@@H](CCC(=O)O)C(=O)N[C@H](CCCCN)C(=O)N[C@H](CCCCN)C(=O)N[C@H](CC(C)C)C(=O)N[C@H](CCC(=O)O)C(=O)N[C@@H](C(=O)N[C@H](C)C(=O)N[C@@H](C(=O)N[C@H](CC(N)=O)C(=O)N[C@H](CC(C)C)C(=O)N[C@H](C)C(=O)N[C@H](Cc1c[nH]c2ccccc12)C(=O)N[C@@H](C(=O)N[C@H](C)C(=O)NCC(=O)N[C@H](CC(N)=O)C(=O)N[C@H](CO)C(=O)N[C@H](CC(N)=O)C(=O)N[C@@H](CCCCN)C(=O)N[C@@H](Cc1c[nH]c2ccccc12)C(=O)N[C@H](C(=O)N[C@@H](Cc1c[nH]c2ccccc12)C(=O)N[C@@H](CCCCN)C(=O)O)[C@@H](C)O)[C@H](C)O)C(C)C)[C@H](C)O)[C@@H](C)O [Tf-D-LP4]
markedly lower: CD133 expression [2] | Klf4 expression [2] | NGFR expression [2] | Nestin expression [2] | S100B expression [2] | Sox2 expression [2]
